What was measured:
[1] = system: VEGF-induced proliferation of HUVEC cells; experiment: VEGF-A induced HUVEC proliferation; assay type: cell-based, human; details: 10 μg/ml; 15 ng/ml VEGF-A165; 3 days, CellTiter-Glo
Protocol: To determine whether FGFR1-ECD.339-Fc blocks VEGF-induced proliferation of endothelial cells, HUVEC cells (Life Technologies, Grand Island, N.Y.) were seeded at a density of 4×10^3 cells/well in basal media (Medium 200 (Life Technologies) with 2% heat inactivated FBS) and stimulated with either 10 ng/ml FGF2 (R&D Systems, Minneapolis, Minn.) or 15 ng/ml VEGF-A165 (R&D Systems, Minneapolis, Minn.) either in the presence of absence of 10 μg/ml FGFR1-ECD.339-Fc. HUVEC cell proliferation was determined 3 days post-stimulation using CellTiter-Glo® Luminescent Cell Viability Assay.

[2] = system: NCI-H1703 xenograft model; experiment: NCI-H1703 NSCLC xenograft tumor growth inhibition; assay type: in vivo, mouse; details: Lung NCI-H1703, IP 15 mg/kg BIW, FGFR1 amplified, P < 0.05
Protocol: Efficacy of FGFR1-ECD.339-Fc treatment in one additional xenograft model, using non-small cell lung cancer (NSCLC) cell line NCI-H1703, was tested in a similar manner as the SCLC and NSCLC cell lines described above. […] It is noted that NCI-H1703 cell line contains a drug-sensitive PDGFRA/PDGFC genomic amplification in addition to FGFR1 amplification, which may be responsible for the modest efficacy observed.

NCI-H520 cells = experiment: CellTiter-Glo cell number, NCI-H520; assay type: cell-based, human; details: 15 μg/ml, 4 days, 10%, 1% or 0.1% FBS
Excerpt: A panel of lung cancer cell lines displaying potential amplification of the FGFR1 gene was identified using CONAN (http://www.sanger.ac.uk/cgi-bin/genetics/CGP/conan/search.cgi) and Tumorscape (http://www.broadinstitute.org/tumorscape/pages/portalHomejsf). CONAN and Tumorscape represent public data mining tools to extract gene copy number information for predefined or user defined loci across the SNP6.0 dataset of cancer. Lung cancer cell lines DMS53, DMS114, NCI-H1581 and NCI-H520 were identified as having potential amplification of the FGFR1 gene (>4 copies/cell) and were selected for further analysis. Human small cell lung cancer (SCLC) cell lines DMS53 and DMS114 were purchased from ATCC (Manassas, Va.; Cat. No. CRL-2062; Cat. No. CRL-2066, respectfully). The cells were cultured in Waymouth's MB 752/1 medium+10% FBS+2 mM L-glutamine at 37° C. in a humidified atmosphere with 5% CO2. […]
To determine cell number the CellTiter-Glo® Luminescent Cell Viability Assay (Promega, Madison, Wis.) was employed. CellTiter-Glo® is a homogeneous method of determining the number of viable cells in culture based on quantitation of the ATP present, an indicator of metabolically active cells. […] Luminescence was then determined on an EnVision™ Multilabel Plate Reader (PerkinElmer, Boston, Mass.) with a 0.2 second integration time. Results were expressed as relative light units (RLU)/well.

FGFR1-ECD.339-Fc: human FGFR1 extracellular domain ending at amino acid 339 fused to an Fc; SEQ ID NO: 6 (mature form), SEQ ID NO: 5 with signal peptide
VEGF-induced proliferation of HUVECs [1]: did not block
TGI (%) [2]: 31%
cell number (CellTiter-Glo) (NCI-H520 cells): reduced

— US10537611B2, “Methods of treating lung cancer” (Five Prime Therapeutics, Inc., priority 2011, dated 2020)
